# Where “and” joins values, the source holds several entries; their conditions need not be identical. Equal entries are not always repeated. Where two headings read alike, the source gives them in different places. Marks after values point to notes of the source that are not given here.
# Experiment: Phase 1 crossover PK study: oral solution fed/fasted vs IV infusion in healthy subjects
# Assay type: in vivo, human
# Procedure: This pharmacokinetic (PK) study in healthy subjects was conducted to characterize and compare the PK parameters in plasma following a single intravenous (IV) dose of Elraglusib Injection, Elraglusib Oral Solution after fasting, and Elraglusib Oral Solution after a high-fat meal (fed). The study was intended to assess the potential feasibility of an oral formulation of elraglusib based on systemic exposure being within the biologically active range. In clinical studies conducted to date, elraglusib Injection (10 mg/mL) is administered IV once or twice per week over multiple hours, which requires a significant amount of time and resources by both patients and site personnel. […] See Example 3 above.
# The route of administration is by IV infusion after diluting elraglusib for injection with 0.9% Sodium Chloride Injection.
# It is a clear, red solution, free of visible particulate matter and a low bioburden liquid dosage form that is self-preserving against microbial growth.
# Subjects received a single 3.3 mg/kg dose of each of the following in a randomly assigned order separated by a 2-week period.
# During the study, the high fat meal was administered over a period of under 30 minutes (in almost all cases, 28 minutes).
# Elraglusib Injection (10 mg/mL) administered as an IV infusion over 60 minutes (concentration in mg/mL and infusion rate in mL/kg/hour could vary depending on the subject's body weight).
# PK parameters including AUC, Cmax, Tmax, and t1/2 were analyzed by standard non-compartmental analysis (NCA) methods following each of the elraglusib doses. Log transformed Cmax and AUC parameters in subjects having adequate PK data following at least 1 of the oral and IV doses were used to assess the relative bioavailability of the oral dose (fed and/or fasted) compared to the IV dose.
# All efforts were made to obtain the PK samples at the scheduled nominal times relative to dosing. PK samples were assayed using validated analytical methods.
# [1] = IV infusion 3.3 mg/kg, human plasma
smiles,measurement,setting,value
"Cn1cc(C2=C(c3coc4ccc(F)cc34)C(=O)NC2=O)c2cc3c(cc21)OCO3 [elraglusib, 3-(5-fluorobenzofuran-3-yl)-4-(5-methyl-5H-[1,3]dioxolo[4,5-f]indol-7-yl)-1H-pyrrole-2,5-dione]",% extrap Arithmetic Mean,[1],1.146%
same,% extrap GMean,[1],0.7979%
same,% extrap Median,[1],1.04%
same,AUC∞/Dose Arithmetic Mean,[1],33.79 ng·h/mL/mg
same,AUC∞/Dose GMean,[1],32.93 ng·h/mL/mg
same,AUC∞/Dose Median,[1],32.7 ng·h/mL/mg
same,Clast Arithmetic Mean,[1],3.045 ng/mL
same,Clast GMean,[1],2.142 ng/mL
same,Clast Median,[1],2.64 ng/mL
same,Cmax/Dose Arithmetic Mean,[1],6.756 ng/mL/mg
same,Cmax/Dose GMean,[1],6.615 ng/mL/mg
same,Cmax/Dose Median,[1],7.02 ng/mL/mg
same,R^2 Arithmetic Mean,[1],0.9904 #
same,R^2 GMean,[1],0.9903 #
same,R^2 Median,[1],0.9964 #
same,λZ Arithmetic Mean,[1],0.0397 h⁻¹
same,λZ GMean,[1],0.0372 h⁻¹
same,λZ Median,[1],0.0346 h⁻¹
same,"oral bioavailability vs IV, geometric means of AUClast or AUC∞","human, fasted state",14-21%
same,"oral bioavailability vs IV, geometric means of Cmax","human, fasted state",5-11%
same,half-life,"human, plasma, 3.3 mg/kg, human, read-out: terminal elimination half-life, rapid clearance subset of subjects",7 to 11 h
same,clearance,"human, plasma, iv, 3.3 mg/kg, IV infusion",7.11 mL/min/kg and 519 mL/min
same,AUC,"human, plasma, iv, 3.3 mg/kg, IV infusion 3.3 mg/kg, human plasma, read-out: AUC24 Arithmetic Mean",6850 ng·h/mL
same,AUC,"human, plasma, iv, 3.3 mg/kg, IV infusion 3.3 mg/kg, human plasma, read-out: AUC24 GMean",6730 ng·h/mL
same,AUC,"human, plasma, iv, 3.3 mg/kg, IV infusion 3.3 mg/kg, human plasma, read-out: AUC24 Median",7200 ng·h/mL
same,AUC,"human, plasma, iv, 3.3 mg/kg, IV infusion 3.3 mg/kg, human plasma, read-out: AUC48 Arithmetic Mean",7590 ng·h/mL
same,AUC,"human, plasma, iv, 3.3 mg/kg, IV infusion 3.3 mg/kg, human plasma, read-out: AUC48 GMean",7450 ng·h/mL
same,AUC,"human, plasma, iv, 3.3 mg/kg, IV infusion 3.3 mg/kg, human plasma, read-out: AUC48 Median",7980 ng·h/mL
same,AUC,"human, plasma, iv, 3.3 mg/kg, IV infusion 3.3 mg/kg, human plasma, read-out: AUC72 Arithmetic Mean",7840 ng·h/mL
same,AUC,"human, plasma, iv, 3.3 mg/kg, IV infusion 3.3 mg/kg, human plasma, read-out: AUC72 GMean",7690 ng·h/mL
same,AUC,"human, plasma, iv, 3.3 mg/kg, IV infusion 3.3 mg/kg, human plasma, read-out: AUC72 Median",8190 ng·h/mL
same,AUC,"human, plasma, iv, 3.3 mg/kg, IV infusion 3.3 mg/kg, human plasma, read-out: AUC96 Arithmetic Mean",7980 ng·h/mL
same,AUC,"human, plasma, iv, 3.3 mg/kg, IV infusion 3.3 mg/kg, human plasma, read-out: AUC96 GMean",7810 ng·h/mL
same,AUC,"human, plasma, iv, 3.3 mg/kg, IV infusion 3.3 mg/kg, human plasma, read-out: AUC96 Median",8250 ng·h/mL
same,AUC(0-t),"human, plasma, iv, 3.3 mg/kg, IV infusion 3.3 mg/kg, human plasma, read-out: AUClast Arithmetic Mean",7970 ng·h/mL
same,AUC(0-t),"human, plasma, iv, 3.3 mg/kg, IV infusion 3.3 mg/kg, human plasma, read-out: AUClast GMean",7810 ng·h/mL
same,AUC(0-t),"human, plasma, iv, 3.3 mg/kg, IV infusion 3.3 mg/kg, human plasma, read-out: AUClast Median",8250 ng·h/mL
same,AUC(0-inf),"human, plasma, iv, 3.3 mg/kg, IV infusion 3.3 mg/kg, human plasma, read-out: AUC∞ Arithmetic Mean",8070 ng·h/mL
same,AUC(0-inf),"human, plasma, iv, 3.3 mg/kg, IV infusion 3.3 mg/kg, human plasma, read-out: AUC∞ GMean",7900 ng·h/mL
same,AUC(0-inf),"human, plasma, iv, 3.3 mg/kg, IV infusion 3.3 mg/kg, human plasma, read-out: AUC∞ Median",8260 ng·h/mL
same,Cmax,"human, plasma, iv, 3.3 mg/kg, IV infusion 3.3 mg/kg, human plasma, read-out: Cmax Arithmetic Mean",1600 ng/mL
same,Cmax,"human, plasma, iv, 3.3 mg/kg, IV infusion 3.3 mg/kg, human plasma, read-out: Cmax GMean",1590 ng/mL
same,Cmax,"human, plasma, iv, 3.3 mg/kg, IV infusion 3.3 mg/kg, human plasma, read-out: Cmax Median",1570 ng/mL
same,Tmax,"human, plasma, iv, 3.3 mg/kg, IV infusion 3.3 mg/kg, human plasma, read-out: Tmax Arithmetic Mean",1.22 h
same,Tmax,"human, plasma, iv, 3.3 mg/kg, IV infusion 3.3 mg/kg, human plasma, read-out: Tmax GMean",1.13 h
same,Tmax,"human, plasma, iv, 3.3 mg/kg, IV infusion 3.3 mg/kg, human plasma, read-out: Tmax Median",1.32 h
same,half-life,"human, plasma, iv, 3.3 mg/kg, IV infusion 3.3 mg/kg, human plasma, read-out: t1/2 Arithmetic Mean (converted)",19.6 h
same,half-life,"human, plasma, iv, 3.3 mg/kg, IV infusion 3.3 mg/kg, human plasma, read-out: t1/2 GMean (converted)",18.6 h
same,half-life,"human, plasma, iv, 3.3 mg/kg, IV infusion 3.3 mg/kg, human plasma, read-out: t1/2 Median (converted)",20.1 h
same,AUC(0-t),"human, plasma, iv, 3.3 mg/kg, IV infusion 3.3 mg/kg, read-out: AUClast LS Means",7810 ng·h/mL
same,AUC(0-inf),"human, plasma, iv, 3.3 mg/kg, IV infusion 3.3 mg/kg, read-out: AUC∞ LS Means",7900 ng·h/mL
same,Cmax,"human, plasma, iv, 3.3 mg/kg, IV infusion 3.3 mg/kg, read-out: Cmax LS Means",1590 ng/mL
same,Cmax,"human, plasma, iv, 3.3 mg/kg, human, 3.3 mg/kg IV infusion, read-out: mean Cmax (arithmetic mean)",1600 ng/mL
same,AUC(0-inf),"human, plasma, iv, 3.3 mg/kg, human, 3.3 mg/kg IV, read-out: mean AUC∞",8070 ng·h/mL
same,Vd,"human, plasma, iv, 3.3 mg/kg, human, IV infusion, read-out: volume of distribution",11.2 L/kg and 822 L
same,half-life,"human, plasma, other: IV or oral, 3.3 mg/kg, human, read-out: terminal elimination half-life, rapid clearance subset of subjects",6 to 11 h
same,half-life,"human, plasma, other: oral solution (fed and fasted) and IV infusion, 3.3 mg/kg, human, all 3 treatments, read-out: terminal elimination half-life, majority of subjects",15 to 25 h
same,half-life,"human, plasma, other: oral solution (fed and fasted) and IV infusion, 3.3 mg/kg, human, all three treatments, read-out: mean terminal elimination half-life",16 to 21 h
same,Cmax,"human, plasma, po, 3.3 mg/kg, human, 3.3 mg/kg oral solution, fasted state, read-out: mean Cmax (arithmetic mean)",172 ng/mL
same,Cmax,"human, plasma, po, 3.3 mg/kg, human, 3.3 mg/kg oral solution, fed state, read-out: mean Cmax (arithmetic mean)",592 ng/mL
same,AUC(0-inf),"human, plasma, po, 3.3 mg/kg, human, 3.3 mg/kg oral, fasted state, read-out: mean AUC∞",1810 ng·h/mL
same,AUC(0-inf),"human, plasma, po, 3.3 mg/kg, human, 3.3 mg/kg oral, fed state, read-out: mean AUC∞",5000 ng·h/mL
same,bioavailability,"human, plasma, po, 3.3 mg/kg, human, 3.3 mg/kg, fasted state (Cmax and AUC based), read-out: oral bioavailability",5 to 21%
same,bioavailability,"human, plasma, po, 3.3 mg/kg, human, 3.3 mg/kg, fed state (Cmax and AUC based), read-out: oral bioavailability",19 to 63%
same,half-life,"human, plasma, po, 3.3 mg/kg, human, subject 113, oral fed state, read-out: longest terminal half-life (converted)",50.5 h
same,half-life,"human, plasma, po, 3.3 mg/kg, human, subject 118, oral fasted state, read-out: shortest half-life (converted)",6.92 h
same,bioavailability,"human, plasma, po, 3.3 mg/kg, human, read-out: relative bioavailability following oral dosing in the fed state, one subject (105)",91%
same,AUC,"human, plasma, po, 3.3 mg/kg, oral 3.3 mg/kg fasted state, human plasma, read-out: AUC24 Arithmetic Mean",1230 ng·h/mL
same,AUC,"human, plasma, po, 3.3 mg/kg, oral 3.3 mg/kg fasted state, human plasma, read-out: AUC24 GMean",1010 ng·h/mL
same,AUC,"human, plasma, po, 3.3 mg/kg, oral 3.3 mg/kg fasted state, human plasma, read-out: AUC24 Median",1070 ng·h/mL
same,AUC,"human, plasma, po, 3.3 mg/kg, oral 3.3 mg/kg fasted state, human plasma, read-out: AUC48 Arithmetic Mean",1620 ng·h/mL
same,AUC,"human, plasma, po, 3.3 mg/kg, oral 3.3 mg/kg fasted state, human plasma, read-out: AUC48 GMean",1340 ng·h/mL
same,AUC,"human, plasma, po, 3.3 mg/kg, oral 3.3 mg/kg fasted state, human plasma, read-out: AUC48 Median",1420 ng·h/mL
same,AUC,"human, plasma, po, 3.3 mg/kg, oral 3.3 mg/kg fasted state, human plasma, read-out: AUC72 Arithmetic Mean",1740 ng·h/mL
same,AUC,"human, plasma, po, 3.3 mg/kg, oral 3.3 mg/kg fasted state, human plasma, read-out: AUC72 GMean",1430 ng·h/mL
same,AUC,"human, plasma, po, 3.3 mg/kg, oral 3.3 mg/kg fasted state, human plasma, read-out: AUC72 Median",1530 ng·h/mL
same,AUC,"human, plasma, po, 3.3 mg/kg, oral 3.3 mg/kg fasted state, human plasma, read-out: AUC96 Arithmetic Mean",1780 ng·h/mL
same,AUC,"human, plasma, po, 3.3 mg/kg, oral 3.3 mg/kg fasted state, human plasma, read-out: AUC96 GMean",1460 ng·h/mL
same,AUC,"human, plasma, po, 3.3 mg/kg, oral 3.3 mg/kg fasted state, human plasma, read-out: AUC96 Median",1560 ng·h/mL
same,AUC(0-t),"human, plasma, po, 3.3 mg/kg, oral 3.3 mg/kg fasted state, human plasma, read-out: AUClast Arithmetic Mean",1780 ng·h/mL
same,AUC(0-t),"human, plasma, po, 3.3 mg/kg, oral 3.3 mg/kg fasted state, human plasma, read-out: AUClast GMean",1460 ng·h/mL
same,AUC(0-t),"human, plasma, po, 3.3 mg/kg, oral 3.3 mg/kg fasted state, human plasma, read-out: AUClast Median",1560 ng·h/mL
same,AUC(0-inf),"human, plasma, po, 3.3 mg/kg, oral 3.3 mg/kg fasted state, human plasma, read-out: AUC∞ Arithmetic Mean",1810 ng·h/mL
same,AUC(0-inf),"human, plasma, po, 3.3 mg/kg, oral 3.3 mg/kg fasted state, human plasma, read-out: AUC∞ GMean",1480 ng·h/mL
same,AUC(0-inf),"human, plasma, po, 3.3 mg/kg, oral 3.3 mg/kg fasted state, human plasma, read-out: AUC∞ Median",1590 ng·h/mL
same,CL/F,"human, plasma, po, 3.3 mg/kg, oral 3.3 mg/kg fasted state, human plasma, read-out: CL Median (converted)",34.5 mL/min/kg
same,Cmax,"human, plasma, po, 3.3 mg/kg, oral 3.3 mg/kg fasted state, human plasma, read-out: Cmax Arithmetic Mean",172 ng/mL
same,Cmax,"human, plasma, po, 3.3 mg/kg, oral 3.3 mg/kg fasted state, human plasma, read-out: Cmax GMean",133 ng/mL
same,Cmax,"human, plasma, po, 3.3 mg/kg, oral 3.3 mg/kg fasted state, human plasma, read-out: Cmax Median",169 ng/mL
same,Tmax,"human, plasma, po, 3.3 mg/kg, oral 3.3 mg/kg fasted state, human plasma, read-out: Tmax Arithmetic Mean",2.7 h
same,Tmax,"human, plasma, po, 3.3 mg/kg, oral 3.3 mg/kg fasted state, human plasma, read-out: Tmax GMean",2.42 h

# Reference: patent US20250325517A1, “ORAL DOSAGE FORMS OF ELRAGLUSIB” (Actuate Therapeutics, Inc., priority 2022, published 2025)
